Patent US9561231B2 (AbbVie Inc., priority 2012, dated 2017)

Columns and labels:
Raji = test: Proliferation panel assay: Raji; format: cell-based; conditions: Homo sapiens, 120 h; Raji (Burkitt lymphoma); 5 days, Cell Titer Glo; read-out: Cellular Proliferation EC50
[1] = tested on: breast cancer cell line MX-1; test: MX-1 cell line proliferation assay (3-day); format: cell-based; conditions: Homo sapiens, MX1; MX-1 cells, 72 h incubation, Cell Titer Glo; read-out: Cellular proliferation: EC50
Method in brief: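 EC50 derived by sigmoidal fitting of Cell Titer Glo signal relative to DMSO controls. Compound, 3 μM down to 0.0001 μM final in 3-fold steps, was added to adhered MX-1 cells (5000/well, RPMI + 10% FBS) for a 3-day incubation at 37° C.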

H460 = test: Proliferation panel assay: H460; format: cell-based; conditions: Homo sapiens, NCI-H460, 120 h; H460 (NSCLC); 5 days, Cell Titer Glo; read-out: Cellular Proliferation EC50
MDAMB231 = test: Proliferation panel assay: MDAMB231; format: cell-based; conditions: Homo sapiens, MDA-MB-231, 120 h; MDAMB231 (Breast); 5 days, Cell Titer Glo; read-out: Cellular Proliferation EC50
MDAMB453 = test: Proliferation panel assay: MDAMB453; format: cell-based; conditions: Homo sapiens, MDA-MB-453, 120 h; MDAMB453 (Breast); 5 days, Cell Titer Glo; read-out: Cellular Proliferation EC50
SKM1 = test: Proliferation panel assay: SKM1; format: cell-based; conditions: Homo sapiens, SKM-1, 120 h; SKM1 (AML); 5 days, Cell Titer Glo; read-out: Cellular Proliferation EC50
NCI-H929 = test: Proliferation panel assay: NCI-H929; format: cell-based; conditions: Homo sapiens, 120 h; NCI-H929 (Multiple Myeloma); 5 days, Cell Titer Glo; read-out: Cellular Proliferation EC50
A-375 = test: Proliferation panel assay: A-375; format: cell-based; conditions: Homo sapiens, 120 h; A-375 (Melanoma); 5 days, Cell Titer Glo; read-out: Cellular Proliferation EC50
HepG2 = test: Proliferation panel assay: HepG2; format: cell-based; conditions: Homo sapiens, 120 h; HepG2 (Hepatocellular); 5 days, Cell Titer Glo; read-out: Cellular Proliferation EC50
RPMI-8226 = test: Proliferation panel assay: RPMI-8226; format: cell-based; conditions: Homo sapiens, 120 h; RPMI-8226 (Multiple Myeloma); 5 days, Cell Titer Glo; read-out: Cellular Proliferation EC50
GEO = test: Proliferation panel assay: GEO; format: cell-based; conditions: 120 h; GEO (Colon); 5 days, Cell Titer Glo; read-out: Cellular Proliferation EC50
H1975 = test: Proliferation panel assay: H1975; format: cell-based; conditions: Homo sapiens, NCI-H1975, 120 h; H1975 (NSCLC); 5 days, Cell Titer Glo; read-out: Cellular Proliferation EC50
[2] = target: T1, first (BD1: amino acids K57-E168) bromodomain of BRD4 (Homo sapiens, UniProt O60885); test: TR-FRET bromodomain binding assay, BRD4 BD1; conditions: TR-FRET assay protocol (A-G, compound concentration range); Ki calculated from IC50, probe Kd and probe concentration; read-out: TR-FRET Binding Ki: BRD4 (BDI_K57-E168)
T1 construct: His-tagged first (BD1: amino acids K57-E168)
Method in brief: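 His-tagged BRD4 BD1 (K57-E168) or BD2 ([…]) displacing an Alexa647-labelled BET-inhibitor probe in 20 mM sodium phosphate pH 6.0, 50 mM NaCl, 1 mM EDTA, 0.01% Triton X-100, 1 mM DTT.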

EJ-1 = test: Proliferation panel assay: EJ-1; format: cell-based; conditions: EJ1, 120 h; EJ-1 (Bladder); 5 days, Cell Titer Glo; read-out: Cellular Proliferation EC50
PC3M = test: Proliferation panel assay: PC3M; format: cell-based; conditions: Homo sapiens, PC-3M, 120 h; PC3M (Prostate); 5 days, Cell Titer Glo; read-out: Cellular Proliferation EC50
OPM2 = test: Proliferation panel assay: OPM2; format: cell-based; conditions: Homo sapiens, OPM-2, 120 h; OPM2 (Multiple Myeloma); 5 days, Cell Titer Glo; read-out: Cellular Proliferation EC50
D54MG = test: Proliferation panel assay: D54MG; format: cell-based; conditions: 120 h; D54MG (Glioblastoma); 5 days, Cell Titer Glo; read-out: Cellular Proliferation EC50
HPAC = test: Proliferation panel assay: HPAC; format: cell-based; conditions: Homo sapiens, 120 h; HPAC (Pancreas); 5 days, Cell Titer Glo; read-out: Cellular Proliferation EC50

EC50 (Raji) [nM]	EC50 [1] [nM]	EC50 (H460) [nM]	EC50 (MDAMB231) [nM]	EC50 (MDAMB453) [nM]	EC50 (SKM1) [nM]	EC50 (NCI-H929) [nM]	EC50 (A-375) [nM]	EC50 (HepG2) [nM]	EC50 (RPMI-8226) [nM]	EC50 (H1975) [nM]	Ki [2] [nM]	EC50 (PC3M) [nM]	SMILES	EC50 (GEO) [nM]	EC50 (EJ-1) [nM]	EC50 (OPM2) [nM]	EC50 (D54MG) [nM]	EC50 (HPAC) [nM]
129	208	110	720	320	116	109	430	486	279	380	48.2	1450	Cn1cc(-c2cc(NS(C)(=O)=O)ccc2Oc2ccccc2)ccc1=O [Example 224, N-[3-(1-methyl-6-oxo-1,6-dihydropyridin-3-yl)-4-phenoxyphenyl]methanesulfonamide]	550	1590	50	423	380
134	387	310	460	340	135	98	498	510	305	470	25.9	1400	Cc1cc(-c2cc(NS(C)(=O)=O)ccc2Oc2ccccc2)c[nH]c1=O [Example 261, N-[3-(5-methyl-6-oxo-1,6-dihydropyridin-3-yl)-4-phenoxyphenyl]methanesulfonamide]	670	1160	55	338	500
